System: mouse ischemic foot edema
Assay: Effect on mouse ischemic foot edema
Assay type: in vivo, ddy male mouse
Details: given just before ischemia, HA 26.71 mg
Protocol: A ddy male mouse aged 8 weeks is kept in a keeping device and the right hind leg is tied around with a suture (Brain No. 2). One end of the suture is fixed while a weight of 500 g is suspended from another end of the suture. Thus, ischemia is conducted for a definite period of time. Before the ischemia and 60 minutes thereafter, the thickness of the foot-pad of the animal was measured with slide calipers. Then, the foot-pad is cut and weighed. To a control group, a physiological saline is intravenously administered immediately before the initiation of the ischemia. To test groups, specimen shown in Table 6 was administered 30 minutes before the initiation of the ischemia and immediately before the same. Each group has 5 animals. The catarase used as a specimen was originated from bovine liver. The HA-catalase used was prepared as follows. 10 mg of the HA-catalase of lot No. 120-1 was dissolved in 5.2 ml of a physiological saline and filtered through a membrane of 0.22 μm (Milex GV; mfd. by Nippon Millipore Kogyo K.K.). 1 ml portions of the filtrate were distributed to ampuls to give a preparation for injection. The preparation contained 600 U of the enzyme per ampul.
The effects were calculated in accordance with the following equations. [formula] It is believed that a sample showing A of 40 or more is effective. [formula] It is believed that a sample showing A of 60 or more is effective.

With hyaluronic acid [HA] the “Effect A” value was 22 and the “Effect B” value was 35.

— patent US5310881A, “Glycosaminoglycan-modified protein” (Seikagaku Corporation, priority 1990, dated 1994)
